Reference: patent US5672585A, “Method and composition for treating thrombosis” (priority 1995, dated 1997)
Where two headings read alike, the source gives them in different places. Where no end group is shown, it is not given here. [ ]: non-standard residue; d: D form. The star is where a group is joined. Pmc = Cc1c(C)c(S(=O)(=O)*)c(C)c2c1OC(C)(C)CC2; Pen = CC(C)(S)[C@H](N)C(=O)O

Experiments:
platelets [1] = format: cell-based; settings: for platelet aggregation potency relative to analogue 3: more potent than analogue 3; for increase in platelet aggregation potency relative to analogue 5: substitution of Leu at position 3
Description: (§1) Platelet aggregation was assessed using the method of Born, Nature 194:927-929 (1962), incorporated herein by reference. Briefly, the change in light transmission was measured through a stirred suspension of platelets in an aggregometer (Model 400 VS, Chrono-Log, Hayertown, Pa., USA). […] In studies using thrombin, the PRP was gel-filtered on Sepharose 2B in divalent ion-free Tyrode's solution containing 2% BSA. For all studies, the reference standard was platelet-poor plasma, which was obtained by centrifuging PRP at 1000×g for 5 min.
(§2) All aggregation studies were performed at 37° C. with a constantly stirred suspension of 3×10^8 platelets/mL. (Platelet count was determined with the aid of a hemacytometer.) Peptides and stimulants were added to these suspensions in 1% dilutions. The PRP and gel-filtered platelets were used within three hours from the time of blood collection.
The peptides described in this Example were synthesized according to the methods of Examples I and XI. Selectivity and potency were measured according to the methods of Examples II through XI. The peptide identification numbers used in this Example are consistent and relevant to this Example only. Some of the peptides are identified by other nomenclature elsewhere in this document.

platelets [2] = test: ADP-stimulated platelet aggregation in platelet-rich plasma (Table I); settings: read-out: ADP-Stimulated Aggregation; ADP 10 μm, citrated platelet-rich plasma, 37° C.; * concentrations unconfirmed by amino acid composition analysis
Description: (§4) All aggregation studies were performed at 37° C. with a constantly stirred suspension of 3×10^8 platelets/ml. (Platelet count was determined with the aid of a hemacytometer.) Peptides and stimulants were added to these suspensions in 1% dilutions. The PRP and gel-filtered platelets were used within three hours from the time of blood collection.

[3] = target: vitronectin receptor (Vn-R); test: VnR binding, ELISA or liposome attachment assay (Table I); set-up: species or system human; settings: purified receptor
Description: Receptor and ligand purifications were performed according to the methods in this Example or those in Examaple XI.C. Receptors were purified according to the procedures of Pytela et al. (Methods Enzymol. 144:475 (1987)), incorporated herein by reference. […] Except where stated, all procedures were carried out at 4° C. The peptide column was washed with three volumes of Tris-buffered saline (TBS) containing 1 mM Ca^2+ and 25 mM OG and then with TBS containing 1 mM Ca^2+ and 25 mM octyl thioglucoside (OTG) at room temperature. […] Finally, Ca^2+ and Mg^+2 were added to eluted fractions to achieve final concentrations of 1 mM for both ions.
This assay was performed with minor modifications, according to the method of Pytela et al., Methods Enzymol. 144:475 (1987), incorporated herein by reference. Briefly, 1:4 mixture of labelled and unlabelled phosphatidylcholine (PC) liposomes was dissolved under nitrogen and diluted with an equal volume of purified receptor (purified as described in Example II) to achieve a fixed predetermined receptor-liposome concentration ratio. This mixture was then dialyzed overnight at 4° C. in phosphate buffered saline (PBS) containing 1 mM Ca^2+. An aliquot of the dialyzed sample was counted to assess radioactive content; the receptor-liposome mixture was then diluted to obtain a set radioactivity per unit volume.
Microtiter plates were coated with 10 μg of vitronectin. Non-specific sites were blocked for 2 hours at 37° C. in PBS containing 5 mg/ml BSA and 1 mM each of CaCl2 and MgCl2. The plates were then rinsed twice with PBS containing 1 mM Ca^+2 and Mg^+2, and 100 μl of the liposome-receptor mixture was added to each well. If necessary, peptides were added before this step in a 1-10% dilution. The plates were then incubated at 4° C. for 24 hours. The following day, the liquid in each well was aspirated and the plates were washed twice with PBS containing 1 mM Ca^+2 and Mg^+2. Finally, 100 μl of 2% SDS was added, the plates were shaken for 10-15 minutes, and the supernatants were collected, vortexed, and subjected to liquid scintillation counting. This procedure typically yielded ca. 1000 total and 100 non-specific counts per well.
In parallel studies with the platelet aggregation experiments (described in Example V), the apparent affinities of peptides for GP IIbIIa, fibronectin and vitronectin receptors were determined. Receptor-binding assays (as described in Examples III and IV) with purified receptors, were used to assess the abilities of the peptides to displace the binding of receptors to their receptor-specific ligands.
(§5) Those for VnR and GP IIb/IIIa were determined either by ELISA or liposome attachment assay (Example IV).

[4] = target: T1, Fibronectin receptor (Fn-R) (Homo sapiens, UniProt P05556+P08648); test: FnR binding, competitive ELISA (Table I); settings: purified receptor, * concentrations unconfirmed by amino acid composition analysis
T1 construct: Fibronectin receptor (Fn-R) was similarly purified from (100 mM) octyl glucoside-extracted human placenta; from tissue; host or cells: human placenta
T1 sequence (P08648 42-894 limits assumed): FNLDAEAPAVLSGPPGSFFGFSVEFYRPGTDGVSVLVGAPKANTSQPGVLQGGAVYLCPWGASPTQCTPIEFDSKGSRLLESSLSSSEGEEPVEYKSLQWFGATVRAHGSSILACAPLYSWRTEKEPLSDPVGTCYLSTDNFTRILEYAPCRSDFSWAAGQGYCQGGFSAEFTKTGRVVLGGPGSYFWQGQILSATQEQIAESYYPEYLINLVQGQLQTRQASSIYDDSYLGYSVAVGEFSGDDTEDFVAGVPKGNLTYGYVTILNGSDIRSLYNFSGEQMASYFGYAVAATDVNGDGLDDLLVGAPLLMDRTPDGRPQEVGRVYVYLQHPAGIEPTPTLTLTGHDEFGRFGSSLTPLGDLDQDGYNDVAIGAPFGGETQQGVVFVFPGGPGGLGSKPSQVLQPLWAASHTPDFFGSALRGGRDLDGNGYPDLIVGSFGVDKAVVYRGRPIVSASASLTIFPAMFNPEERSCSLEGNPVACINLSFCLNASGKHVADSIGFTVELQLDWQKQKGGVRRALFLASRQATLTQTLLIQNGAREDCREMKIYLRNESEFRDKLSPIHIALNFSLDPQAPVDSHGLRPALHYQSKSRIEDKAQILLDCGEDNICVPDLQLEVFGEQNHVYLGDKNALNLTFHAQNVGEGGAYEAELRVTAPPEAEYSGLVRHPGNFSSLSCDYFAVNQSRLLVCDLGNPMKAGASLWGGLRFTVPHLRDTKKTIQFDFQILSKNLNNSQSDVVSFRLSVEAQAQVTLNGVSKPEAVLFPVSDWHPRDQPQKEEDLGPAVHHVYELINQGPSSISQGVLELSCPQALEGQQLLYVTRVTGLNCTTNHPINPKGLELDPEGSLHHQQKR
T1 sequence (P08648 895-1049 partner limits assumed): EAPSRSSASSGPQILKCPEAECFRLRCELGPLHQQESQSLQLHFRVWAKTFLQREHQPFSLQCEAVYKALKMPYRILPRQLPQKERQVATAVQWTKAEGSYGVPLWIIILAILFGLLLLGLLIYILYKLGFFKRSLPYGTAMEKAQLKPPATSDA
T1 sequence (P05556 21-798): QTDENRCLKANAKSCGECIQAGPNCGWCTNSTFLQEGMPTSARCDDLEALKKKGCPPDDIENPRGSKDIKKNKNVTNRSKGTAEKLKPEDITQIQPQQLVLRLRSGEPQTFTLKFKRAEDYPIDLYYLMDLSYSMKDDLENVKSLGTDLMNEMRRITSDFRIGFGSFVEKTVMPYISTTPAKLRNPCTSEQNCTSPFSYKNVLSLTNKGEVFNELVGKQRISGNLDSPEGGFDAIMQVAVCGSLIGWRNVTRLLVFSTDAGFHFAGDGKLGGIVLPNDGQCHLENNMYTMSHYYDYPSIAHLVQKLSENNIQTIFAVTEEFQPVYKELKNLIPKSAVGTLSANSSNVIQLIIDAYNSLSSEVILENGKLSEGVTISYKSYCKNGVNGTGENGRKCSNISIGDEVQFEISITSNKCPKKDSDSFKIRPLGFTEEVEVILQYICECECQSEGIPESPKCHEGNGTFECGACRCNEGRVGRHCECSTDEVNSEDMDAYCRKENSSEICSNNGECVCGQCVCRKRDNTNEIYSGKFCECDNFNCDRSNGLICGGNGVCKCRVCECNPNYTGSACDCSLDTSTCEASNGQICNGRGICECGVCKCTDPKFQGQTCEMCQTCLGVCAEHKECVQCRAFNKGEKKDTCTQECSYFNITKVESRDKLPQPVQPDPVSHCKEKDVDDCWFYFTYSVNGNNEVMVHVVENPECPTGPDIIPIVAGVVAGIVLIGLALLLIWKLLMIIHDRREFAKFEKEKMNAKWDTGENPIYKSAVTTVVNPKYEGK
Description: Peptide binding to purified Fn-R was determined by using a competitive enzyme-linked immunosorbent assay (ELISA) in which fibronectin is immobilized and the binding of solubilized Fn-R and the binding of solubilized FN-R, in the presence of various concentrations of peptide analogue, is detected with a polyclonal anti-Fn-R antibody followed by a labelled anti-rabbit IgG conjugate.
Microtiter plates were coated with 110 μl of human fibronectin (at 2 μg/ml) in TBS. The plates were washed three times with TBS that contained 0.05% Tween 20. 50 microliters of receptor in TBS containing 20 mM octylglucoside and 2 mM NmCl2 was added to each well. 50 microliters of peptide in the same buffer was then added in 10-fold serial dilutions. The plates were incubated for three hours at room temperature, washed with 200 μl of the above TBS-Tween buffer. 100 μl of affinity-purified rabbit anti-human fibronectin receptor antibody was added to the wells and the plates were incubated for an additional two hours, washed twice with TBS-Tween and then distilled water. Affinity-purified goat anti-rabbit IgG conjugated to horseradish peroxidase (100 μl) was then added to each well. Bonding reactions were incubated for 16 hours at room temperature. The following day, the plates were washed twice with TBS-Tween and then distilled water. […]
IC50 s for FnR were determined by ELISA (Example III).

platelets [5] = test: Thrombin-stimulated platelet aggregation (Table I); settings: read-out: Thrombin Stimulated Aggregation; thrombin 2 U/ml, gel-filtered platelets, 37° C.
Description: as §4

platelets [6] = test: Ex vivo inhibition of platelet aggregation (Table IV); format: in vivo, dog; settings: for ex vivo inhibition of platelet aggregation (%): dose as listed per peptide in Table IV; for ex vivo platelet aggregation: doses of Table IV
Description: as §1, with “Platelet aggregation assays were performed following the methods of this Example or those of Example IX.G. Platelet” for “Platelet”, “(Nature” for “Nature”, “(1962)),” for “(1962),”
as §2, with “platelets/ml.” for “platelets/mL.”
Peptide anti-aggregation potencies were determined from dose-responsive curves for the inhibition of the maximum aggregation responses stimulated by physiologic doses of ADP (10 μm) and thrombin (2 U/ml).
Using the method described in Example V to measure ex vivo inhibition of platelet aggregation and the method described in Example VII to measure bleeding, four additional peptides were tested. These peptides included 11J, 11Q, 11K and 11V.

canine platelets = test: Canine platelet aggregation in vitro (ADP, arachidonic acid, collagen); format: cell-based, dog; settings: stimulated by 10 μm ADP, […] arachidonic acid or 9.6 micrograms/ml collagen
platelets [7] = test: Ex vivo platelet aggregation in the canine coronary thrombosis study; settings: dog, 10 mg/kg injection
Description: For all ex vivo studies (see FIGS. 3A, 3B1, 3B2, 3B3, 3C1 and 3C2), control aggregation values were standardized to the percentages of light transmission observed in PRP and PPP samples (0% and 100%, respectively).
(§3) Animals were randomly assigned to two treatment groups: vehicle control (i.e., normal saline) or RGD peptides at various concentrations. Peptides were administered intra-atrially in both bolus and continuous injections. Each bolus injection consisted of 0.5 to 10 mg/kg and was administered 15 minutes before application of the current. A continuous infusion of the same peptide was then started immediately after completion of this initial injection. Animals received a 25 μg/kg/min to 200 μg/kg/min infusion. The anti-thrombotic effects of the peptides were monitored until 30 minutes after the occurrence of a persistent, occlusive thrombus or five hours after the initiation of electrical stimulation (whichever resulted first). If an occlusive thrombus had not developed within four hours after the initiation of current, the peptide infusion was stopped.
Platelet counts and ex vivo aggregation studies were performed one hour before and 1, 3, and 5 hours after application of anodal direct current.
Platelet aggregation was also determined ex vivo at one, three, and five hours after current application. For these studies, arachidonic acid, or collagen was again used to stimulate the platelets.

coronary thrombosis = test: Electrically induced canine coronary thrombosis, time to full occlusion; format: in vivo; settings: dog
Description: Male mongrel dogs weighing 14 to 20 kg were selected based on proper aggregation of their platelets in response to arachidonic acid, collagen, and adenosine disphosphate (ADP) and based on similar weights and hemodynamic properties.
Before surgery, the animals were anesthetized with sodium pentobarbital (30 mg/kg, i.v.) and then intubated and ventilated on room air with positive pressure using a respirator (Harvard Apparatus, S. Natick, Mass.) at a volume of 30 ml/kg and a frequency of 12 breaths/min. Surgery, performed under aseptic conditions, was begun with the placement of cannulae into the left carotid artery and jugular vein for monitoring arterial blood pressure (Statham P23 pressure transducer, Gould, Inc., Cardiovascular Products, Oxnard, CA) and administering intravenous fluids.
The heart was exposed via a left thoracotomy through the 5th intercostal space. A 2-cm segment of the left circumflex coronary artery (LCCA) was isolated from surrounding tissue by blunt dissection. […] The intra-coronary electrode was constructed by attaching a 25-gauge hypodermic needle tip to a 30-gauge Teflon-insulated silver-coated copper wire. The mechanical occluder was constructed of stainless steel in a C shape with a Teflon screw (2 mm diameter) on top. It was adjusted to control vessel circumference and decrease the reactive hyperemic flow due to a 10-sec (full) occlusion by 50-70% without affecting basal coronary blood flow (FIG. 1C). A monopolar epicardial electrode was sutured to the surface of the ventricle in the region of LCCA distribution to monitor ischemic changes in the electrocardiogram (ECG). The left atrium was cannulated with polythylene tubing for administration of the peptide. Continuous recordings of blood pressure, limb lead II ECG, epicardial electrogram, and mean and phasic LCCA blood flow were obtained on a Model 7 polygraph (Grass Instrument Co., Quincy, Mass.).
One hour after the completion of surgery, a 100 micro-amp continuous anodal direct current delivered from a 9 volt nickel-cadmium battery was applied to the intimal surface of the LCCA. The anode of the battery was in series with a 250,000 ohm potentiometer and the intraluminal coronary artery electrode. The electric circuit was completed by placing the cathode in a subcutaneous site. Electrical stimulation was applied for three hours. At the conclusion of each experiment, the heart was fibrillated electrically and quickly removed, and the LCCA was dissected free as far as possible to verify the position of the implanted anodal electrode.
as §3
Coronary thrombosis was quantified as the time to full occlusion. The effects of the various peptide treatments on coronary thrombosis is illustrated in FIG. 4.

GP IIb/IIIa = GP IIb/IIIa (Homo sapiens, UniProt P05106+P08514); test: IIb/IIIa binding, ELISA or liposome attachment assay (Table I); set-up: Platelet glycoprotein IIb/IIIa was purified from outdated human platelets; from tissue; host or cells: outdated human platelets; settings: purified receptor
GP IIb/IIIa, sequence (P08514 32-887 limits assumed): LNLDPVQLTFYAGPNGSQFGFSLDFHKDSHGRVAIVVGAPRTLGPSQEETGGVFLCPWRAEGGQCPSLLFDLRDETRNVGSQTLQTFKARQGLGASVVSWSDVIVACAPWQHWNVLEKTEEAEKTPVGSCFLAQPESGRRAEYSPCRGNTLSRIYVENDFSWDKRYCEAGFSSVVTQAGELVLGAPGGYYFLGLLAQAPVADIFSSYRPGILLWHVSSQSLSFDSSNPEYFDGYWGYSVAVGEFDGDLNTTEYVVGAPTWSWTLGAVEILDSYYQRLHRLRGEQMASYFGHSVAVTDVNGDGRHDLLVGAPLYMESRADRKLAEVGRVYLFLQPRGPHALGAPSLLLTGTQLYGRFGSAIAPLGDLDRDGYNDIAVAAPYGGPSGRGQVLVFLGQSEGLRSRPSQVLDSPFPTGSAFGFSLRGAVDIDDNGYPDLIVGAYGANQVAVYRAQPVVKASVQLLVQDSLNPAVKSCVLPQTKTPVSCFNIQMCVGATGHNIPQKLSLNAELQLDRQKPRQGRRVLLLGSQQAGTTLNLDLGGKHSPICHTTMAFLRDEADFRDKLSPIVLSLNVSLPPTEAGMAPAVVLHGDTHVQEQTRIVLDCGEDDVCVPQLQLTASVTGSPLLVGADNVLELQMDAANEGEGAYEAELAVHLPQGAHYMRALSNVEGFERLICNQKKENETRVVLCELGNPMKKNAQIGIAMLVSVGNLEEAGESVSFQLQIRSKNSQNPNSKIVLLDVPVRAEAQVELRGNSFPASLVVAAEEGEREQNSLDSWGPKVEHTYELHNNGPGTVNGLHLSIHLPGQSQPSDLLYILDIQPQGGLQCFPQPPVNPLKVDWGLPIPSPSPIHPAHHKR
GP IIb/IIIa, sequence (P08514 891-1039 partner limits assumed): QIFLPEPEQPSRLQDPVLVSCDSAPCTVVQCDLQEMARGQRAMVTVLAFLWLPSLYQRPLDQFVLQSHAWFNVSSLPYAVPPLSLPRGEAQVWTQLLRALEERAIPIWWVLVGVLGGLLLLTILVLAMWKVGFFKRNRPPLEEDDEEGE
GP IIb/IIIa, sequence (P05106 27-788): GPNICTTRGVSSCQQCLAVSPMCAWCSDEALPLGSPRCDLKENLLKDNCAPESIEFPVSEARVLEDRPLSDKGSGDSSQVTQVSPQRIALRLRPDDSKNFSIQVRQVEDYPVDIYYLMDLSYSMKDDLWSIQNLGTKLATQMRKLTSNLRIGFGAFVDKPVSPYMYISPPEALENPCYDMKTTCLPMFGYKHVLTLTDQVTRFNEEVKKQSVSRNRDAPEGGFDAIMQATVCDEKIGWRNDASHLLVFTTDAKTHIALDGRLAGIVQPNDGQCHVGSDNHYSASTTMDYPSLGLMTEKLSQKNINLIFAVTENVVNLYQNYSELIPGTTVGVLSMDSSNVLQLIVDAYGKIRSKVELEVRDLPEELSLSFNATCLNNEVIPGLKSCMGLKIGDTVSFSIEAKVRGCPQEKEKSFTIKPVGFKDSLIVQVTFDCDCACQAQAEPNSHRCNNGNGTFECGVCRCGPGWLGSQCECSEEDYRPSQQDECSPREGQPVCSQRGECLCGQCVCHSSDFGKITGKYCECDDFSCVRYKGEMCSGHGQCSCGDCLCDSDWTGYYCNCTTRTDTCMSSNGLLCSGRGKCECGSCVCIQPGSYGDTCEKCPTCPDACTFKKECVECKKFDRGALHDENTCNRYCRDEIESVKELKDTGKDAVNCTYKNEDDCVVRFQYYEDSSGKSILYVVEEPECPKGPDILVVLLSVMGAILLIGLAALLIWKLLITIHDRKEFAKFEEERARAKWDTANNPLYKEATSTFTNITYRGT
Description: Microtiter plates, 96 wells were coated (Type Nunc 1 Maxispor™) with 10 μg/ml purified fibrinogen (100 μl/well), and allowed to stand overnight at 4° C. The plates were washed three times with PBS Tween, 0.137M NaCl, 0.003M KCl, 0.008M Na2 HPO4, pH 7.4 at room temperature, 0.05% Tween-20 and blocked for 1 to 2 hours at room temperature with 200 μl/well TNCNT (which is 0.5% BSA, 20 mM Tris, pH 7.5 at room temperature, 120 mM NaCl, 0.2% NAN3, 2 mM CaCl2, 0.05% Tween 20, [Calbiochem RIA grade or better]) on a plate shaker. The plates were again washed three times with PBS/Tween and 50 μl of sample in TNCNT is added. The mixture was incubated for 15 minutes at room temperature on a plate shaker. The stock solution of purified GPIIb IIIa receptor from human platelets, (0.4-1.0 mg/ml GPIIb IIIa in 0.1% Triton X-100, 1 mM CaCl2, 20 mM Tris, 150 mM NaCl, 0.05% NaN3 in 0.3M N-acetyl glucosamine pH 7.5, stored at -70° C.), was reconstituted in TNCNT. Fifty (50) μl of this diluted GPIIb IIIa was then added to each well and incubated on a plate shaker at room temperature. […] The optical density at 492 nm vs 405 nm was recorded and IC50 values are determined.
as §5

[8] = substitution of Arg at position 4

With R(Pmc)GHRGDLRCR [analogue 5] the “platelet aggregation potency relative to analogue 3” value (platelets [1]) was 3 fold.
R(D-Pen)GHRGDLRCR [analogue 4] was tested, and the “platelet aggregation potency relative to analogue 3” value (platelets [1]) was 2 fold.
L(Pen)GHRGDLRCA gave an IC50 (platelets [2]) of 10.5 µM.
FRGDSPDG showed an IC50 [3] of 0.04 µM and an IC50 [4] of 2.4 µM.
With R(Pen)GRGDTPCA the IC50 (platelets [2]) was 7 µM and the IC50 (platelets [5]) was 3.1 µM.
For R(Pmc)GHRGDVRCR, the IC50 (platelets [2]) was 0.69 µM and the “increase in platelet aggregation potency relative to analogue 5” value (platelets [1]) was 4 fold.
For Ac- CNPKGD(Y--OMe)RC--NH2 [Peptide 11Q], the “ex vivo inhibition of platelet aggregation (%)” value (“ex vivo inhibition … (%)” below) (platelets [6]) was over 95% and the “ex vivo platelet aggregation” value (platelets [6]) was “inhibited ex vivo platelet aggregation”.
G(Pen)GRGDRPCA showed an IC50 (platelets [2]) of 22.3 µM.
For R2(Pen)GRGDTPCA, the IC50 (platelets [2]) was 8.2 µM and the IC50 (platelets [5]) was 2.7 µM.
Work on GRGDSP [reference compound] yielded an IC50 (canine platelets; read-out: concentration inhibiting all three canine platelet aggregation responses by 50%) of about 130 µM.
With “Ac- CNPRGD(Y--OMe)(Nle)C--NH2 [Peptide 11V]” the “ex vivo inhibition … (%)” value (platelets [6]) was over 98% and the “ex vivo platelet aggregation” value (platelets [6]) was “inhibited ex vivo platelet aggregation”.
Work on G(Pen)GHRGDTRCA yielded an IC50 (platelets [2]) of 11.3 µM and an IC50 (platelets [5]) of 17 µM.
“G[Pen]YRGDSPCA (cysteine pairing not given here)” showed an IC50 (platelets [2]) of 47 µM.
In the case of (Pmp)GHRGDLRCA, the “platelet aggregation potency relative to analogue 1” value (platelets [1]; more potent than analogue 1) is reported as 2 fold.
In the case of R(Pen)GRGDTPCR, the IC50 (platelets [2]) is reported as 6.3 µM and the IC50 (platelets [5]) is reported as 2 µM.
In the case of R(Pen)GRGDWPCR [Peptide 4R], the IC50 (canine platelets; read-out: IC50 against canine platelet aggregation) is reported as 1.5 to 5 µM, the “ex vivo platelet aggregation by ADP, AA and collagen” value (platelets [7]) is reported as “unresponsive to all modes of stimulation at all time points” and the “coronary thrombosis, occlusion” value (coronary thrombosis; 3 mg/kg) is reported as “ineffective”. The “coronary thrombosis, time to full occlusion” value (coronary thrombosis; 10 mg/kg) was “prevented occlusion throughout the duration of the study” and the IC50 (platelets [5]) was 0.53 µM.
YRGDSPDG gave an IC50 [3] of 0.08 µM.
Work on R(Pmc)GHRGDYRCR yielded an IC50 (platelets [2]) of 1 µM.
“(t-but-am-Pmp)GHRGDLR(Pen)A [(t-but-am-P mp)GHRGDLR(Pen)A]” showed an IC50 (platelets [2]) of 89 µM.
With “R[Pen]GRGDLRCA (cysteine pairing not given here)” the IC50 (platelets [2]) was 16 µM and the IC50 (platelets [5]) was 13 µM.
Work on “R[Pen]GRGDSRCA (cysteine pairing not given here)” yielded an IC50 (platelets [2]) of 12 µM and an IC50 (platelets [5]) of 12 µM.
With R(Pmc)GHRGDFRCR the IC50 (platelets [2]) was 0.62 µM and the “increase in platelet aggregation potency relative to analogue 5” value (platelets [1]) was about 5 fold.
Work on LRGDSPDG yielded an IC50 [3] of 0.2 µM.
Ac- CNPRGD(Y--OMe)EC--NH2 [Peptide 11J] was tested, and the “decrease in platelet aggregation potency relative to analogue 32” value (platelets [1]; [8]) was 15 fold, the “ex vivo inhibition … (%)” value (platelets [6]) was over 98% and the “ex vivo platelet aggregation” value (platelets [6]) was “inhibited ex vivo platelet aggregation”.
With G(Pen)GRGDTPCA the IC50 (platelets [2]) was 22.3 µM and the IC50 (platelets [5]) was 28 µM.
For G(Pen)LRGDTPCA, the IC50 (platelets [2]) was 86 µM.
Work on “R[Pen]GHRGDTRCR (cysteine pairing not given here)” yielded an IC50 (platelets [2]) of 8.8 µM.
With “G[Pen]GRGDSFCA (cysteine pairing not given here)” the IC50 (platelets [2]) was 115 µM.
In the case of VRGDSPDG, the IC50 [3] is reported as 0.24 µM, the IC50 [4] is reported as 0.04 µM and the IC50 (GP IIb/IIIa) is reported as 0.27 µM.
In the case of Ac- CNPRGD(Y--OMe)KC--NH2 [Peptide 11R], the “inhibitory activity retained relative to analogue 32” value (platelets [1]; [8]) is reported as 20%.
With Ac-CIPRGD(Y-OMe)RC-NH2 [Peptide 10R] the “increase in platelet aggregation potency relative to analogue 26” value (platelets [1]) was 3-4 fold.
(Pmp)GRGDTPCA was tested, and the IC50 (platelets [2]) was 85 µM.
Ac- CNPRGD(Y--OMe)AC--NH2 [Peptide 11K] was tested, and the “platelet aggregation potency compared with analogue 32” value (platelets [1]; [8]) was “substantial decreases in platelet aggregation potency”, the “ex vivo inhibition … (%)” value (platelets [6]) was over 98% and the “ex vivo platelet aggregation” value (platelets [6]) was “inhibited ex vivo platelet aggregation”.
For G(Pen)LRGDSPCA, the IC50 (platelets [2]) was 415 µM and the IC50 (platelets [5]) was 308 µM.
For G(Pen)LRGDSRCA, the IC50 (platelets [2]) was 41 µM and the IC50 (platelets [5]) was 49 µM.
R(Tmc)GHRGDLRCR [analogue 7] was tested, and the “platelet aggregation potency relative to analogue 3” value (platelets [1]) was 2 fold.
G(Pen)FRGDSFCA was tested, and the IC50 (platelets [2]) was over 200 µM.
Work on “Ac-CNPRGD(O-N-Butyl-Y)RC-NH2 [Ac CNPRGD(O-n-butyl-Tyr)RC--NH2]” yielded an IC50 (platelets [2]) of 0.1 µM.
R(orn)GHRGDLRDR gave an IC50 (platelets [2]) of over 200 µM.
In the case of “Ac- CNPRGD(Y--OMe)(dR)C--NH2 [Peptide 11L]”, the “platelet aggregation potency compared with analogue 32” value (platelets [1]; [8]) is reported as “decrease in potency”.
“Ac- CNPRGD(Y--OMe)(Cit)C--NH2 [Peptide 11S]” was tested, and the “platelet aggregation potency compared with analogue 32” value (platelets [1]; [8]) was “substantial decreases in platelet aggregation potency”.
R(Pen)GRGDTPCK gave an IC50 (platelets [2]) of 7.6 µM.
